Calls of active or inactive are those of the source. The rule behind the calls is not given here.
What was measured:
Assay type in all cases: cell-based
[1] = target: N6-adenosine-methyltransferase catalytic subunit (Homo sapiens) (UniProt Q86U44); assay: Inhibition of METTL3 in human Huh-7 cells assessed as down regulation of m6A RNA level at 2 uM incubated for 72 hrs by colorimetric analysis
[2] = target: N6-adenosine-methyltransferase catalytic subunit (Homo sapiens) (UniProt Q86U44); assay: Inhibition of METTL3 in human Lenvatinib-resistant Huh7/Len cells assessed as effect on MMP3 mRNA expression level at 2 uM incubated for 72 hrs by RT-PCR analysis
[3] = target: N6-adenosine-methyltransferase catalytic subunit (Homo sapiens) (UniProt Q86U44); assay: Inhibition of METTL3 in human Lenvatinib-resistant Huh7/Len cells assessed as effect on LATS1 mRNA expression level at 2 uM incubated for 72 hrs by RT-PCR analysis
[4] = target: N6-adenosine-methyltransferase catalytic subunit (Homo sapiens) (UniProt Q86U44); assay: Inhibition of METTL3 in human Lenvatinib-resistant Huh7/Len cells assessed as effect on FGFR3 mRNA expression level at 2 uM incubated for 72 hrs by RT-PCR analysis
[5] = target: N6-adenosine-methyltransferase catalytic subunit (Homo sapiens) (UniProt Q86U44); assay: Inhibition of METTL3 in human Lenvatinib-resistant Huh7/Len cells assessed as effect on MMP13 mRNA expression level at 2 uM incubated for 72 hrs by RT-PCR analysis
[6] = target: N6-adenosine-methyltransferase catalytic subunit (Homo sapiens) (UniProt Q86U44); assay: Inhibition of METTL3 in human Lenvatinib-resistant Huh7/Len cells assessed as effect on TET1 mRNA expression level at 2 uM incubated for 72 hrs by RT-PCR analysis
[7] = target: N6-adenosine-methyltransferase catalytic subunit (Homo sapiens) (UniProt Q86U44); assay: Inhibition of METTL3 in human Lenvatinib-resistant Huh7/Len cells assessed as effect on ADAMTS9 mRNA expression level at 2 uM incubated for 72 hrs by RT-PCR analysis
[8] = target: N6-adenosine-methyltransferase catalytic subunit (Homo sapiens) (UniProt Q86U44); assay: Inhibition of METTL3 in human Lenvatinib-resistant Huh7/Len cells assessed as effect on IFIT2 mRNA expression level at 2 uM incubated for 72 hrs by RT-PCR analysis
[9] = target: N6-adenosine-methyltransferase catalytic subunit (Homo sapiens) (UniProt Q86U44); assay: Inhibition of METTL3 in human Lenvatinib-resistant Huh7/Len cells assessed as effect on EZH2 mRNA expression level at 2 uM incubated for 72 hrs by RT-PCR analysis
[10] = target: N6-adenosine-methyltransferase catalytic subunit (Homo sapiens) (UniProt Q86U44); assay: Inhibition of METTL3 in human Lenvatinib-resistant Huh7/Len cells assessed as effect on IFFO1 mRNA expression level at 2 uM incubated for 72 hrs by RT-PCR analysis
[11] = target: N6-adenosine-methyltransferase catalytic subunit (Homo sapiens) (UniProt Q86U44); assay: Inhibition of METTL3 in human Lenvatinib-resistant Huh7/Len cells assessed as effect on NPCL1 mRNA expression level at 2 uM incubated for 72 hrs by RT-PCR analysis
[12] = target: N6-adenosine-methyltransferase catalytic subunit (Homo sapiens) (UniProt Q86U44); assay: Inhibition of METTL3 in human Lenvatinib-resistant Huh7/Len cells assessed as effect on TIBIM6 mRNA expression level at 2 uM incubated for 72 hrs by RT-PCR analysis
[13] = target: N6-adenosine-methyltransferase catalytic subunit (Homo sapiens) (UniProt Q86U44); assay: Inhibition of METTL3 in human Lenvatinib-resistant Huh7/Len cells assessed as effect on CRB3 mRNA expression level at 2 uM incubated for 72 hrs by RT-PCR analysis
[14] = target: N6-adenosine-methyltransferase catalytic subunit (Homo sapiens) (UniProt Q86U44); assay: Inhibition of METTL3 in human Lenvatinib-resistant Huh7/Len cells assessed as effect on DEK mRNA expression level at 2 uM incubated for 72 hrs by RT-PCR analysis
[15] = target: N6-adenosine-methyltransferase catalytic subunit (Homo sapiens) (UniProt Q86U44); assay: Inhibition of METTL3 in human Lenvatinib-resistant Huh7/Len cells assessed as effect on MYC mRNA expression level at 2 uM incubated for 72 hrs by RT-PCR analysis
[16] = target: N6-adenosine-methyltransferase catalytic subunit (Homo sapiens) (UniProt Q86U44); assay: Inhibition of METTL3 in human Lenvatinib-resistant Huh7/Len cells assessed as effect on SLC7A11 mRNA expression level at 2 uM incubated for 72 hrs by RT-PCR analysis
[17] = target: N6-adenosine-methyltransferase catalytic subunit (Homo sapiens) (UniProt Q86U44); assay: Inhibition of METTL3 in human Lenvatinib-resistant Huh7/Len cells assessed as effect on UCK2 mRNA expression level at 2 uM incubated for 72 hrs by RT-PCR analysis
[18] = target: N6-adenosine-methyltransferase catalytic subunit (Homo sapiens) (UniProt Q86U44); assay: Inhibition of METTL3 in human Lenvatinib-resistant Huh7/Len cells assessed as effect on CTSL mRNA expression level at 2 uM incubated for 72 hrs by RT-PCR analysis
[19] = target: N6-adenosine-methyltransferase catalytic subunit (Homo sapiens) (UniProt Q86U44); assay: Inhibition of METTL3 in human Lenvatinib-resistant Huh7/Len cells assessed as effect on HNF4A mRNA expression level at 2 uM incubated for 72 hrs by RT-PCR analysis
[20] = target: N6-adenosine-methyltransferase catalytic subunit (Homo sapiens) (UniProt Q86U44); assay: Inhibition of METTL3 in human Lenvatinib-resistant Huh7/Len cells assessed as effect on AKT1 mRNA expression level at 2 uM incubated for 72 hrs by RT-PCR analysis
[21] = target: N6-adenosine-methyltransferase catalytic subunit (Homo sapiens) (UniProt Q86U44); assay: Inhibition of METTL3 in human Lenvatinib-resistant Huh7/Len cells assessed as effect on GATA3 mRNA expression level at 2 uM incubated for 72 hrs by RT-PCR analysis

Chain of N6-adenosine-methyltransferase catalytic subunit (Homo sapiens) (Q86U44 whole entry): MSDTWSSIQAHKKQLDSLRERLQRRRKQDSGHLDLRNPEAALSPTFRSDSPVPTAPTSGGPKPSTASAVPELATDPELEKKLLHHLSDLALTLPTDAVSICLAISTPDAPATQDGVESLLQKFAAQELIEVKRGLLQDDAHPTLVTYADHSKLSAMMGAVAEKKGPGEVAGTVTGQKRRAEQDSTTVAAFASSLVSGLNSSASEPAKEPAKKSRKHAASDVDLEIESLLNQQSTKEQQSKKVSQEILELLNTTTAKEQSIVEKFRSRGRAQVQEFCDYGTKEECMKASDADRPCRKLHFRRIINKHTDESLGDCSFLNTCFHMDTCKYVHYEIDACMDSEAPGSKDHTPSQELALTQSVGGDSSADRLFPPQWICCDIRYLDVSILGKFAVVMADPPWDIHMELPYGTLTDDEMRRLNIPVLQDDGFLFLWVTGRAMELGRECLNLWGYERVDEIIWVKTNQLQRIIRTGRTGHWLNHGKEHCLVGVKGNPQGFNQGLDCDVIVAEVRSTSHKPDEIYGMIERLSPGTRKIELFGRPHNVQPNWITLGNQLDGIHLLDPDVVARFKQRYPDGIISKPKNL

- inhibition [1]: 18%
- inhibition [2]: Active
- inhibition [3]: Active
- inhibition [4]: Active
- inhibition [5]: Active
- inhibition [6]: Active
- inhibition [7]: Active
- inhibition [8]: Active
- inhibition [9]: Active
- inhibition [10]: Active
- inhibition [11]: Active
- inhibition [12]: Active
- inhibition [13]: Active
- inhibition [14]: Active
- inhibition [15]: Active
- inhibition [16]: Active
- inhibition [17]: Active
- inhibition [18]: Active
- inhibition [19]: Active
- inhibition [20]: Active
- inhibition [21]: Active
Structure (SMILES): O=C(NCc1cn2cc(CNCC3CCCCC3)ccc2n1)c1cc(=O)n2ccccc2n1
